Consider 17 compounds from patent US6528494B2 (priority 1996, dated 2003).

Structures can show the parent of a compound that is named as a salt. Some results are limits rather than exact numbers.

What all share (type): cell-based
In assay [1] the target is adenosine 2a receptor (Homo sapiens, UniProt P29274). Kind of assay: Agonist activity against adenosine 2a receptor (CHO cells, cAMP/SPAP reporter). The conditions noted are these: CHO cells transfected with human receptor, basal cAMP via SPAP, mean of all the versions tested. On the procedure:
(§1) (1) Agonist activity against adenosine 2a, adenosine 1 and adenosine 3 receptor subtypes.
(§2) The effect of test compounds was determined by their effects on basal levels of cAMP (A2a) or on forskolin-enhanced cAMP (A1 and A3) as reflected by changes in levels of SPAP.

The target of assay [2] is T1, adenosine 1 receptor (Homo sapiens, UniProt P30542).
T1 sequence (P30542 1-326): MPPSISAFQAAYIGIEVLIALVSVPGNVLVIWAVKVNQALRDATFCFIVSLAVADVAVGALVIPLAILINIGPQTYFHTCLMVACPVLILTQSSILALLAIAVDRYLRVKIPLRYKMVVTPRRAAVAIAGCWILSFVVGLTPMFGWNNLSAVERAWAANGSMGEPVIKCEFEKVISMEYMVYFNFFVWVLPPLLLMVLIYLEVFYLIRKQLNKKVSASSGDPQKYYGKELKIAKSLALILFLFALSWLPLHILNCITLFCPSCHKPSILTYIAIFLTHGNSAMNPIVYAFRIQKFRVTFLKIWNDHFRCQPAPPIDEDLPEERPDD
As to the kind of experiment: Agonist activity against adenosine 1 receptor (CHO cells, forskolin-enhanced cAMP/SPAP reporter). The conditions noted are these: CHO cells transfected with human receptor, forskolin-enhanced cAMP via SPAP, mean of all the versions tested. The method, then:
as §1, §2

Assay [3] has as its target T2, adenosine 3 receptor (Homo sapiens, UniProt P0DMS8).
T2 sequence (P0DMS8 1-318): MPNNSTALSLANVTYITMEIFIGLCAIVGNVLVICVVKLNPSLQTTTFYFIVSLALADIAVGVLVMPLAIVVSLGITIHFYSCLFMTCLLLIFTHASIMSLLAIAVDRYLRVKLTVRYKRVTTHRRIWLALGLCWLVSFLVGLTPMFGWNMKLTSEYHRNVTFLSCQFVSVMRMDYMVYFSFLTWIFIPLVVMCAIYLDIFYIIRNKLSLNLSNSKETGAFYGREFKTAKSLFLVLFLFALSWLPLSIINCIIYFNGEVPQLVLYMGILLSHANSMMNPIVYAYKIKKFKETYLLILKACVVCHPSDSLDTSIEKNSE
Kind of assay: Agonist activity against adenosine 3 receptor (CHO cells, forskolin-enhanced cAMP/SPAP reporter). The conditions noted are these: CHO cells transfected with human receptor, forskolin-enhanced cAMP via SPAP, mean of all the versions tested. On the procedure: as §1, §2

adenosine 2a receptor, sequence (P29274 whole entry): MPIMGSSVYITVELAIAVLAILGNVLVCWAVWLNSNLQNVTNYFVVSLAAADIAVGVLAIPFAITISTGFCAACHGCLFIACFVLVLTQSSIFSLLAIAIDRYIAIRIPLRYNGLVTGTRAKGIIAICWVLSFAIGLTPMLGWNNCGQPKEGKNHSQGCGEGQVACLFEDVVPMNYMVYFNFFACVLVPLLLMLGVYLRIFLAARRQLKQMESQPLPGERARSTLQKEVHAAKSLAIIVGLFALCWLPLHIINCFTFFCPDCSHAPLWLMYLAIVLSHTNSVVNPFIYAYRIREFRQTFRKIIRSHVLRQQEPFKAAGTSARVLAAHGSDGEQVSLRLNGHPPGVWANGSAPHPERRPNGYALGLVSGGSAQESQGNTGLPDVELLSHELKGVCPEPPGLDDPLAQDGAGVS

As for `CCn1nnc(C2OC(n3cnc4c(NCCC5CCCCC5)nc(NC5CCNC5)nc43)C(O)C2O)n1` [Example 73, (2R,3R,4S,5R)-2-[6-(2-Cyclohexyl-ethylamino)-2-(pyrrolidin-3S-ylamino)-purin-9-yl]-5-(2-ethyl-2H-tetrazol-5-yl)-tetrahydro-furan-3,4-diol bis(Formate)], in assay [1], the “A2a EC50 as a ratio of that of NECA” value amounted to 5.75. In addition, the “A1 EC50 as a ratio of that of NECA” value in assay [2] was 818.40. For the same compound, the “A3 EC50 as a ratio of that of NECA” value in assay [3] is given as over 171.
Regarding `CCn1nnc(C2OC(n3cnc4c(NCCc5ccccc5)nc(NC5CCNC5)nc43)C(O)C2O)n1` [Example 74, (2R,3S,4R,5R)-2-(2-Ethyl-2H-tetrazol-5-yl)-5-[6-phenethylamino-2-(pyrrolidin-3R-ylamino)-purin-9-yl]-tetrahydro-furan-3,4-diol bis(Formate)], the “A2a EC50 as a ratio of that of NECA” value in assay [1] worked out at 2.79. In assay [2], the “A1 EC50 as a ratio of that of NECA” value came to 201.70. For the same compound, the “A3 EC50 as a ratio of that of NECA” value in assay [3] is listed as over 171.
The like results for `CCn1nnc([C@H]2O[C@@H](n3cnc4c(N)nc(NCCc5ccc(O)c(O)c5)nc43)[C@H](O)[C@@H]2O)n1.O=CO` [Example 15, (2R,3R,4S,5R)-2-{6-Amino-2-[2-(3,4-dihydroxy-phenyl)-ethylamino]-purin-9-yl}-5-(2-ethyl-2H-tetrazol-5-yl)-tetrahydro-furan-3,4-diol Formate] were, in that order, 0.55, 139.5 and over 209.
`Cn1nnc(C2OC(n3cnc4c(NCc5cccc(I)c5)nc(NC5CCC(N)CC5)nc43)C(O)C2O)n1.O=CO.O=CO` [Example 105, (2R,3R,4S,5R)-2-[2-(trans-4-Amino-cyclohexylamino)-6-(3-iodo-benzylamino)-purin-9-yl]-5-(2-methyl-2H-tetrazol-5-yl)-tetrahydro-furan-3,4-diol bis(Formate)]: the “A2a EC50 as a ratio of that of NECA” value in assay [1] is 1.07. Further, the “A1 EC50 as a ratio of that of NECA” value in assay [2] was over 2999.00. Also, in assay [3], the “A3 EC50 as a ratio of that of NECA” value is recorded as over 233.
For `Cn1nnc(C2OC(n3cnc4c(NCc5cccc(I)c5)nc(NCCN5CCCCC5)nc43)C(O)C2O)n1` [Example 106, (2R,3R,4S,5R)-2-[6-(3-lodo-benzylamino)-2-(2-piperidin-1-yl-ethylamino)-purin-9-yl]-5-(2-methyl-2H-tetrazol-5-yl)-tetrahydro-furan-3,4-diol bis(Formate)], the “A2a EC50 as a ratio of that of NECA” value in assay [1] is 1.12. Further, the “A1 EC50 as a ratio of that of NECA” value in assay [2] was determined as 100.30. In addition, the “A3 EC50 as a ratio of that of NECA” value in assay [3] is reported as over 201.
In the case of `Cn1cnc(CCNc2nc(NCc3cccc(I)c3)c3ncn([C@@H]4O[C@H](c5nnn(C)n5)[C@@H](O)[C@H]4O)c3n2)c1.O=CO` [Example 29, (2R,3R,4S,5R)-2-{6-(3-Iodo-benzylamino)-2-[2-(1-methyl-1H-imidazol-4-yl)-ethylamino]-purin-9-yl}-5-(2-methyl-2H-tetrazol-5-yl)-tetrahydro-furan-3,4-diol Formate], in assay [1], the “A2a EC50 as a ratio of that of NECA” value came to 0.87. In assay [2], the “A1 EC50 as a ratio of that of NECA” value is over 3561. Besides, in assay [3], the “A3 EC50 as a ratio of that of NECA” value is reported as over 105.
In the case of `CCn1nnc(C2OC(n3cnc4c(NCCC(C)(C)C)nc(NC(CO)Cc5ccccc5)nc43)C(O)C2O)n1` [Example 52, (2R,3R,4S,5R)-2-[6-(3,3-Dimethyl-butylamino)-2-(1S-hydroxymethyl-2-phenyl-ethylamino)-purin-9-yl]-5-(2-ethyl-2H-tetrazol-5-yl)-tetrahydro-furan-3,4-diol Acetate], the “A2a EC50 as a ratio of that of NECA” value in assay [1] is recorded as 9.90. Further, the “A1 EC50 as a ratio of that of NECA” value in assay [2] was determined as 481.30. The “A3 EC50 as a ratio of that of NECA” value in assay [3] is over 736.
`CCn1nnc(C2OC(n3cnc4c(NCC(c5ccccc5)c5ccccc5)nc(NC5CCNC5)nc43)C(O)C2O)n1` [Example 21, (2R,3R,4S,5R)-2-[6-(2,2-Diphenyl-ethylamino)-2-(pyrrolidin-3R-ylamino)-purin-9-yl]-5-(2-ethyl-2H-tetrazol-5-yl)-tetrahydro-furan-3,4-diol Dihydrochloride]: the “A2a EC50 as a ratio of that of NECA” value in assay [1] (Dihydrochloride) amounted to 0.69. Besides, the “A1 EC50 as a ratio of that of NECA” value in assay [2] (Dihydrochloride) turned out to be 237.9. Further, the “A3 EC50 as a ratio of that of NECA” value in assay [3] (Dihydrochloride) is on record as over 442.
For the compound `COc1ccc(CCNc2nc(N)c3ncn([C@@H]4O[C@H](c5nnn(C(C)C)n5)[C@@H](O)[C@H]4O)c3n2)cc1OC.O=CO` [Example 42, (2R,3R,4S,5R)-2-{6-Amino-2-[2-(3,4-dimethoxy-phenyl)-ethylamino]-purin-9-yl}-5-(2-isopropyl-2H-tetrazol-5-yl)-tetrahydro-furan-3,4-diol Formate], in assay [1], the “A2a EC50 as a ratio of that of NECA” value came to 0.63. For the same compound, in assay [2], the “A1 EC50 as a ratio of that of NECA” value is given as 414.9. In addition, in assay [3], the “A3 EC50 as a ratio of that of NECA” value was over 413.
In the case of `Cn1cnc(CCNc2nc(NCCC3CCCCC3)c3ncn([C@@H]4O[C@H](c5nnn(C)n5)[C@@H](O)[C@H]4O)c3n2)c1.O=CO` [Example 31, (2R,3R,4S,5R)-2-{6-(2-Cyclohexyl-ethylamino)-2-[2-(1-methyl-1H-imidazol-4-yl)-ethylamino]-purin-9-yl}-5-(2-methyl-2H-tetrazol-5-yl)-tetrahydro-furan-3,4-diol Formate], the “A2a EC50 as a ratio of that of NECA” value in assay [1] was found to be 0.49. Moreover, in assay [2], the “A1 EC50 as a ratio of that of NECA” value is listed as “>=3680”. Also, the “A3 EC50 as a ratio of that of NECA” value in assay [3] is reported as over 100.
`CCn1nnc([C@H]2O[C@@H](n3cnc4c(N)nc(NCCc5ccc(OC)c(OC)c5)nc43)[C@H](O)[C@@H]2O)n1.O=C(O)C(F)(F)F` [Example 20, (2R,3R,4S,5R)-2-{6-Amino-2-[2-(3,4-dimethoxy-phenyl)-ethylamino]-purin-9-yl}-5-(2-ethyl-2H-tetrazol-5-yl)-tetrahydro-furan-3,4-diol Trifluoroacetate]: the “A2a EC50 as a ratio of that of NECA” value in assay [1] is on record as 0.14. In addition, the “A1 EC50 as a ratio of that of NECA” value in assay [2] is recorded as 253. Further, in assay [3], the “A3 EC50 as a ratio of that of NECA” value was over 183.
With `CCC(CC)Nc1nc(NC2CCCC2O)nc2c1ncn2C1OC(c2nnn(C)n2)C(O)C1O.O=CO.O=CO` [Example 88, (2R,3R,4S,5R)-2-[6-(1-Ethyl-propylamino)-2-(2R-hydroxy-(R)-cyclopentylamino)-purin-9-yl]-5-(2-methyl-2H-tetrazol-5-yl)-tetrahydro-furan-3,4-diol Diformate], the “A2a EC50 as a ratio of that of NECA” value in assay [1] is given as 4.53. In assay [2], the “A1 EC50 as a ratio of that of NECA” value was over 11750.00. Further, the “A3 EC50 as a ratio of that of NECA” value in assay [3] is given as over 89.
The like results for `CC(C)C(CO)Nc1nc(NCC(c2ccccc2)c2ccccc2)c2ncn(C3OC(c4nnn(C)n4)C(O)C3O)c2n1` [Example 99, (2R,3R,4S,5R)-2-[6-(2,2-Diphenyl-ethylamino)-2-(1S-hydroxymethyl-2-methyl-propylamino)-purin-9-yl]-5-(2-methyl-2H-tetrazol-5-yl)-tetrahydro-furan-3,4-diol Formate] were, in that order, 4.82, 87.00 and over 130.
With “(2R,3R,4S,5R)-2-[6-Cyclopentylamino-2-(2-pyrrolidin-1-yl-ethylamino)-purin-9-yl]-5-(2-methyl-2H-tetrazol-5-yl)-tetrahydro-furan-3,4-diol bis(Formate) [Example 112]”, the “A2a EC50 as a ratio of that of NECA” value in assay [1] amounted to 2.19. Moreover, the “A1 EC50 as a ratio of that of NECA” value in assay [2] amounted to 472.30. Besides, the “A3 EC50 as a ratio of that of NECA” value in assay [3] is over 315.
As for `CC(C)n1nnc([C@H]2O[C@@H](n3cnc4c(NCCc5ccccc5)nc(NCCc5cn(C)cn5)nc43)[C@H](O)[C@@H]2O)n1.O=CO` [Example 57, (2R,3S,4R,5R)-2-(2-Isopropyl-2H-tetrazol-5-yl)-5-{2-[2-(1-methyl-1H-imidazol-4-yl)-ethylamino]-6-phenethylamino-purin-9-yl}-tetrahydro-furan-3,4-diol Formate], the “A2a EC50 as a ratio of that of NECA” value in assay [1] is on record as 2.42. Besides, the “A1 EC50 as a ratio of that of NECA” value in assay [2] is given as 376.10. Besides, the “A3 EC50 as a ratio of that of NECA” value in assay [3] is over 362.
On to `CC(C)n1nnc([C@H]2O[C@@H](n3cnc4c(N[C@H](CO)Cc5ccccc5)nc(NCCc5ccccn5)nc43)[C@H](O)[C@@H]2O)n1.O=CO` [Example 63, (2R,3R,4S,5R)-2-[6-(1S-Hydroxymethyl-2-phenyl-ethylamino)-2-(2-pyridin-2-yl-ethylamino)-purin-9-yl]-5-(2-isopropyl-2H-tetrazol-5-yl)-tetrahydro-furan-3,4-diol Formate], for which, in assay [1], the “A2a EC50 as a ratio of that of NECA” value is reported as 5.86. Further, the “A1 EC50 as a ratio of that of NECA” value in assay [2] is listed as 55.60. In assay [3], the “A3 EC50 as a ratio of that of NECA” value is over 326.
As to `CCn1nnc([C@H]2O[C@@H](n3cnc4c(N)nc(NC5CCCC5)nc43)[C@H](O)[C@@H]2O)n1.O=C(O)C(F)(F)F.O=C(O)C(F)(F)F` [Example 12], the “A2a EC50 as a ratio of that of NECA” value in assay [1] is listed as 0.57. Moreover, in assay [2], the “A1 EC50 as a ratio of that of NECA” value worked out at 31.2. The “A3 EC50 as a ratio of that of NECA” value in assay [3] is over 243.
